According to the supplement of paper PMC10307832:

How the values were obtained:
Experiment in all cases: relative viability (nuclei count vs DMSO), 5 days (fraction); higher = more cells survive
BMX-IN-1 + Dasatinib = compound: C=CC(=O)Nc1cc(-n2c(=O)ccc3cnc4ccc(-c5ccc(NS(C)(=O)=O)cc5)cc4c32)ccc1C [BMX-IN-1] + Cc1nc(Nc2ncc(C(=O)Nc3c(C)cccc3Cl)s2)cc(N2CCN(CCO)CC2)n1 [Dasatinib] (partner 0.075 µM)
Outline: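 For relative viability, nuclei counts in treated wells were divided by those in vehicle wells. Lung cancer cell lines had been pin-tool dosed in 1536-well plates the day after seeding and cultured for 5 days, then fixed and stained in one step (final 0.05% Triton X-100, 1% formaldehyde, 1 ug/ml Hoechst) and imaged at 4×. Doses were one drug alone or a fixed anchor-drug dose plus five library-drug doses (not always all listed) in √10 steps, and values are duplicate-plate medians.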

BMX-IN-1 = compound: C=CC(=O)Nc1cc(-n2c(=O)ccc3cnc4ccc(-c5ccc(NS(C)(=O)=O)cc5)cc4c32)ccc1C [BMX-IN-1]
Outline: (§1)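 Acceptance criteria were a control CV below 25% and at least one doubling per plate. Lung cancer cell lines in 1536-well plates got five library-drug doses (not always all listed) √10 apart by pinning and were left 5 days with no medium change. Viability divides treated-well nuclei by vehicle-well nuclei and is the median across plates. Nuclei were counted by MetaXpress from 4× Hoechst images.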

PAC-1 = compound: C=CCc1cccc(/C=N/NC(=O)CN2CCN(Cc3ccccc3)CC2)c1O [PAC-1]
Outline: as §1

Ibrutinib = compound: C=CC(=O)N1CCC[C@@H](n2nc(-c3ccc(Oc4ccccc4)cc3)c3c(N)ncnc32)C1 [Ibrutinib]
Outline: as §1

| Cell Line | relative viability (BMX-IN-1 + Dasatinib; first compound 0.02 µM) | relative viability (BMX-IN-1 + Dasatinib; first compound 0.2 µM) | relative viability (BMX-IN-1 + Dasatinib; first compound 0.6325 µM) | relative viability (BMX-IN-1 + Dasatinib; first compound 2 µM) | relative viability (BMX-IN-1; 0.02 µM) | relative viability (BMX-IN-1; 0.2 µM) | relative viability (BMX-IN-1; 0.6325 µM) | relative viability (BMX-IN-1; 2 µM) | relative viability (PAC-1; 0.02 µM) | relative viability (PAC-1; 0.06325 µM) | relative viability (PAC-1; 0.2 µM) | relative viability (PAC-1; 2 µM) | relative viability (Ibrutinib; 0.005 µM) | relative viability (Ibrutinib; 0.01581 µM) | relative viability (Ibrutinib; 0.05 µM) | relative viability (Ibrutinib; 0.1581 µM) | relative viability (Ibrutinib; 0.5 µM) |
| --- | --- | --- | --- | --- | --- | --- | --- | --- | --- | --- | --- | --- | --- | --- | --- | --- | --- |
| 201T | 0.659 | 0.681 | 0.687 | 0.567 | 1.11 | 0.996 | 1.05 | 1.03 | 0.959 | 1.02 | 1.01 | 0.981 | 0.979 | 0.992 | 0.964 | 0.876 | 0.955 |
| A549 |  |  |  |  | 1.17 | 1.17 | 1.05 | 1.07 | 0.994 | 0.962 | 0.943 | 0.96 | 0.884 | 0.891 | 1 | 0.988 | 0.935 |
| A-427 | 0.731 | 1.01 | 0.782 | 0.664 | 1.08 | 1.12 | 1.17 | 1.03 | 1.01 | 1.04 | 0.976 | 0.97 | 0.9 | 0.969 | 0.953 | 0.951 | 0.98 |
| ABC-1 | 0.465 | 0.545 | 0.598 | 0.601 | 1.05 | 1.02 | 1.01 | 1.05 | 0.992 | 0.952 | 0.975 | 0.887 | 0.907 | 0.761 | 0.887 | 0.744 | 0.94 |
| BEN | 0.308 | 0.34 | 0.241 | 0.295 | 1.17 | 1.27 | 0.861 | 1.01 | 0.987 | 0.901 | 0.912 | 1.04 |  | 0.925 | 0.843 | 0.718 | 0.997 |
| CAL-12T | 0.353 | 0.444 | 0.528 | 0.366 | 1.08 | 0.995 | 1.03 | 0.989 | 1.02 | 1.11 | 0.984 | 0.947 | 0.824 | 0.907 | 0.902 | 0.932 | 0.678 |
| COR-L23 | 0.523 | 0.544 | 0.594 | 0.528 | 1.35 | 1.16 | 1.17 | 1.07 | 1.09 | 1 | 0.9 | 1 | 1.09 | 0.967 | 1.03 | 1.03 | 1.18 |
| COR-L 105 | 0.324 | 0.297 | 0.342 | 0.305 | 1.07 | 0.937 | 1.3 | 0.961 | 0.919 | 0.901 | 0.903 | 0.985 | 0.806 | 0.878 | 0.676 | 0.814 | 0.393 |
| Calu-6 |  |  |  |  | 1.14 | 1.06 | 1.2 | 0.999 | 0.98 | 1.01 | 0.964 | 1.01 | 1.1 | 0.965 | 1 | 1.01 | 1.03 |
| ChaGo-K-1 | 0.63 | 0.598 | 0.633 | 0.561 | 1.14 | 1.05 | 0.963 | 1.02 | 1.05 | 1.01 | 1 | 0.929 | 0.953 | 0.95 | 0.958 | 0.913 | 1.02 |
| EBC-1 |  |  |  |  | 1.06 | 0.952 | 1.14 | 0.964 | 1.04 | 0.932 | 0.949 | 1 | 1.09 | 0.947 | 0.922 | 0.97 | 1.06 |
| EKVX | 0.532 | 0.474 | 0.484 | 0.59 | 1.02 | 0.944 | 1.02 | 1.01 | 1.02 | 0.977 | 0.934 | 0.98 | 0.955 | 0.95 | 0.901 | 0.849 | 0.584 |
| EMC-BAC-2 | 0.348 | 0.345 | 0.326 | 0.353 | 1 | 1.13 | 1.07 | 0.95 | 0.998 | 1.02 | 1.09 | 0.97 | 0.897 | 1.01 | 0.739 |  | 0.96 |
| EPLC-272H | 0.354 | 0.266 | 0.393 | 0.314 | 1.01 | 0.954 | 0.874 | 0.952 | 0.877 | 1.04 | 0.941 | 0.929 | 0.681 | 0.859 | 0.677 | 0.686 | 0.664 |
| H3255 | 0.363 | 0.394 | 0.397 | 0.33 | 1.08 | 0.974 | 1.12 | 1.02 | 1.07 | 1.01 | 0.942 | 0.909 | 0.912 | 0.858 | 0.745 | 0.945 | 0.547 |
| HARA | 0.258 | 0.305 | 0.342 | 0.244 | 1.05 | 1.04 | 1.08 | 1.08 | 0.98 | 1.08 | 0.905 | 1.03 | 0.976 | 0.965 | 0.689 | 0.793 | 0.457 |
| HCC-15 | 0.662 | 0.64 | 0.745 | 0.64 | 1.11 | 1.1 | 1.11 | 1.13 | 1.09 | 1.08 | 0.969 | 1.08 | 1.12 | 1.01 | 1.04 | 0.857 | 1 |
| HCC-44 |  |  |  |  | 1.03 | 1.06 | 1.13 | 0.998 | 0.99 | 1.05 | 0.997 | 0.981 | 1.04 | 0.995 | 0.994 | 1.02 | 1.04 |
| HCC-78 | 0.379 | 0.421 | 0.37 | 0.462 | 1.01 | 1.08 | 1.02 | 0.952 | 1.01 | 0.892 | 0.974 | 1.11 | 0.904 | 0.97 | 0.916 | 0.748 | 0.691 |
| HCC-366 | 0.907 | 0.741 | 0.618 | 0.71 | 1.13 | 1.09 | 1.05 | 1.04 | 0.997 | 0.979 | 1.02 | 1.03 | 1 | 0.962 | 0.968 | 0.913 | 1 |
